Measurements as given in patent US20200009105A1, “PROSTACYCLIN, PROSTACYCLIN ANALOGS, AND METHODS OF TREATING OR PREVENTING REJECTION OF SOLID ORGAN TRANSPLANTS” (VANDERBILT UNIVERSITY, priority 2017, published 2020).
Values joined by “and” are separate entries in the source; they are usually repeats but may differ in a detail not shown here. Equal values may be shown once. Each block holds one compound with its values, some of them ahead of it.

What was measured:
[1] = oral administration; cited from earlier work
IP = IP (Homo sapiens, UniProt P43119); details: compared with treprostinil; cited from earlier work
DCs = details: cited from earlier work
lung DCs = details: mouse model; cited from earlier work
[2] = cited from earlier work
[3] = in vivo; cited from earlier work
Th2 cells = details: in vitro, Th2 cells differentiated under IL-4 and anti-IFN-γ; cited from earlier work
PGE2 receptor EP2 = PGE2 receptor EP2 (Homo sapiens, UniProt P43116); details: cited from earlier work
[4] = rat, chronic administration; cited from earlier work
[5] = test system: type 2 innate lymphoid cells (ILC2); details: cited from earlier work
CD25 = CD25 surface expression on CD4+ T cells by flow cytometry; assay type: cell-based, mouse; details: 3 days, vs vehicle control
Experimental: (§1) CD4^+ T cells were purified from the splenic cells of WT, or IP KO mice by a mouse naive CD4^+ T cell isolation kit II (Miltenyi Biotec, Auburn, Calif.). The purified CD4^+CD62L^+ T cell population contains 97.5% CD3^+CD4^+ cells as determined by flow cytometry. The purified CD4 T cells were resuspended at 1×10^6 cells/ml in RPMI 1640 medium (Mediatech, Herndon, Va.) supplemented with 10% FBS (HyClone, Logan, Utah), 4 mM of L-glutamine, 1 mM of sodium pyruvate, […] of 2-ME, 10 mM of HEPES, 100 U/ml penicillin, and 100 μg/ml streptomycin. The cells were stimulated with plate-bound anti-CD3 (10 μg/ml) and anti-CD28 (2 μg/ml; BD Biosciences, San Diego, Calif.) in 96-well flat-bottom plates and treated with IL-33 (20 ng/ml) plus cicaprost (a generous gift provided by Dr. Manuela Huebner, Bayer HealthCare, Berlin, Germany) at various concentrations or vehicle (water) control. The cells were cultured for 3 days. For T cell proliferation experiments, naive CD4^+ T cells were stained with 1 μM CFSE before cell culture and cicaprost treatment.
(§2) At day 3 of cell culture, the cells were harvested for flow cytometric staining with fluorochrome-labeled antibodies against CD4^+ (Biolegend, San Diego, Calif.), Gata3 (Affymetrix, Santa Clara, Calif.), CD25 (BD Biosciences, San Jose, Calif.), or TSLPR (R&D Systems, Minneapolis, Minn.). An LSR II flow cytometer (BD Biosciences) was used for flow cytometry and the data were analyzed with FlowJo software (FlowJo, LLC, Ashland Oreg.). For cell proliferation assay, CFSE intensity of the cultured cells was determined at day 3 by flow cytometry. Cell division index was calculated with FlowJo software. At day 3, the cells were stained with the cell viability dye 4,6-diamidino-2-phenylindole (DAPI), and 123count™ eBeads (Affymetrix) were added to the cell solution for live cell counting by flow cytometry.
(§3) To determine whether cicaprost attenuates the IL-2 signaling pathway, CD4^+ T cells activated and treated with either cicaprost or vehicle for 3 days were stained with fluorochrome-labeled anti-CD25 antibody and analyzed by flow cytometry.

CD4^+ T cells [6] = assay: Intracellular cytokine staining for flow cytometry of IL-33-stimulated T cells; assay type: cell-based, mouse; details: in the presence of IL-33, 3 days, vs vehicle
Experimental: (§4) CD4^+ T cells were purified from the splenic cells of WT, or IP KO mice by a mouse naive CD4^+ T cell isolation kit II (Miltenyi Biotec, Auburn, Calif.). The purified CD4^+CD62L^+ T cell population contains 97.5% CD3^+CD4^+ cells as determined by flow cytometry. The purified CD4 T cells were resuspended at 1×10^6 cells/ml in RPMI 1640 medium (Mediatech, Herndon, Va.) supplemented with 10% FBS (HyClone, Logan, Utah), 4 mM of L-glutamine, 1 mM of sodium pyruvate, […] of 2-ME, 10 mM of HEPES, 100 U/ml penicillin, and 100 μg/ml streptomycin. […]
as §2, with “At day 3, the cells were stained with the cell viability dye 4,6-diamidino-2-phenylindole (DAPI), and 123count™ eBeads (Affymetrix) were added to the cell solution for live cell counting by flow cytometry.” left out

TSLPR = TSLPR expression on T cells by flow cytometry; assay type: cell-based, mouse; details: WT or IP KO T cell culture in the presence of IL-33 (data not shown)
Experimental: as §2, §3

CD4^+ T cells [7] = assay: IL-2 production by CD4+ T cells (ELISA, day 2 supernatant); assay type: cell-based, mouse; details: WT CD4+ T cells, IL-33, day 2
Experimental: as §4
IL-2, IL-4, IL-5, and IL-13 in the culture supernatant were measured by DuoSet ELISA kits from R&D Systems according to the manufacturer's instructions. Phosphorylated STAT5 (p-STAT5) was measured by phosphor-STAT5A/B (Tyr694/Tyr699) InstantOne™ ELISA kit (Affymetrixes). […]
In vitro activation of mouse naïve CD4^+ T cells results in the expression of IL-2, a growth factor critical for cell survival and proliferation (19). To investigate whether cicaprost inhibits IL-33-induced type 2 cytokine production by suppressing CD4^+ T cell IL-2 production and cell activation, IL-2 levels were measured in the culture supernatant.

NFAT = NFAT function assay (NFAT-luciferase reporter lentiviral vector); assay type: cell-based, mouse; details: WT cells, after 3 days of cell culture
Experimental: To determine NFAT activation, a Cignal Lenti NFAT reporter (luc) kit (Qiagen, Hilden, Germany), was used to transduce naïve CD4^+ T cells. CD4^+ T cells (10^5) of WT and IP KO mice were transduced with 2×10^5 transduction units of lentiviral vector (MOI=2) and 30 μg transduction reagent in 60 μl of transduction medium without antibiotics for 24 h in 96 well plates coated with anti-CD3 and anti-CD28. The cells were then pooled, washed, seeded and treated with IL-33 plus either cicaprost or vehicle. After culture for 2 more days in the same plates, the cells were harvested and the cell lysate was used for luciferase assay with Luciferase Assay System with Reporter Lysis Buffer (Promega, Madison, Wis.). The luciferase activity indicates the levels of NFAT activation. To determine whether the suppressive effect of cicaprost on IL-2 production is associated with the inhibition of NFAT, a transcription factor that binds to the IL-2 gene promoter to activate IL-2 gene expression, an NFAT function assay was performed with an NFAT-luciferase reporter lentiviral vector system.

[8] = test system: naïve CD4^+ T cells of WT and IP KO mice; assay: IL-33-induced type 2 cytokine production by naive CD4+ T cells (ELISA of culture supernatant); assay type: cell-based, mouse
Experimental: as §1
(§5) Cell culture supernatant was collected at day 2 for IL-2 measurement because IL-2 production by activated CD4^+ T cells peak at day 2 (unpublished data). At day 3, the culture supernatant was harvested for IL-4, IL-5 and IL-13 measurement. At day 2, the cells were harvested and the cell lysate was prepared for p-STAT5 measurement.
(§6) IL-2, IL-4, IL-5, and IL-13 in the culture supernatant were measured by DuoSet ELISA kits from R&D Systems according to the manufacturer's instructions. Phosphorylated STAT5 (p-STAT5) was measured by phosphor-STAT5A/B (Tyr694/Tyr699) InstantOne™ ELISA kit (Affymetrixes). Measurements below the limit of detection were assigned a value of half the lower limit of detection for purposes of statistical analyses.
To determine the effect of PGI2 signaling on IL-33-induced Th2 differentiation, naïve CD4^+ T cells of WT and IP KO mice, both on BALB/c background, were activated with anti-CD3 and anti-CD28 either with or without IL-33 and treated with cicaprost or vehicle for 3 days.

ILC2 = details: WT mice; cited from earlier work
CD4^+ T cells [9] = assay: CD4+ T cell proliferation (CFSE dilution) and live cell counting; assay type: cell-based, mouse; details: WT CD4+ T cells, 1000 nM, IL-33, day 3
Experimental: as §4
as §2, with “At day 3, the cells were stained with the cell viability dye 4,6-diamidino-2-phenylindole (DAPI), and 123count™ eBeads (Affymetrix) were added to the cell solution for live cell counting by flow cytometry.” left out
To further analyze the effect of cicaprost on cell proliferation, naïve CD4^+ T cells were CFSE-labeled, activated with anti-CD3 and anti-CD28, and treated with IL-33 plus either vehicle or cicaprost. Cell proliferation was determined by CFSE dilution.

Gata3 = Gata3 expression in CD4+ T cells by flow cytometry; assay type: cell-based, mouse; details: WT mice, 1000 nM, IL-33, 3 days
Experimental: as §1
as §2, with “At day 3, the cells were stained with the cell viability dye 4,6-diamidino-2-phenylindole (DAPI), and 123count™ eBeads (Affymetrix) were added to the cell solution for live cell counting by flow cytometry.” left out
The differentiation of naïve CD4^+ T cells into Th2 cells under IL-4 culture conditions requires the expression of the transcription factor Gata3 (18). To investigate whether Gata3 plays a role in the inhibitory effect of cicaprost on IL-33-induced type 2 cytokine production, the expression of Gata3 in CD4^+ T cells activated with IL-33 and treated with cicaprost at various concentrations or vehicle for 3 days was determined. […]

STAT5 = assay: Phosphorylated STAT5 in CD4+ T cell lysate (ELISA); assay type: cell-based, mouse; details: WT cells, 2 days, IL-33
Experimental: as §5, §6
Binding of IL-2 to IL-2 receptor leads to the activation of JAK1 and JAK3 and the activation of the downstream transcription factors STAT5 (21). To test whether cicaprost downregulates IL-2 receptor signaling, the levels of phosphorylated STAT5 were measured in CD4^+ T cells harvested 2 days after the cell activation and treatment with IL-33 plus either vehicle or cicaprost.

[10] = IP KO CD4+ T cells, anti-CD3/anti-CD28 + IL-33, 3 days
[11] = WT CD4+ T cells, anti-CD3/anti-CD28 + IL-33, 3 days
[12] = in the presence of either 10 ng/ml or 50 ng/ml exogenous IL-2, IL-33, 3 days

Chain of IP (P43119 whole entry): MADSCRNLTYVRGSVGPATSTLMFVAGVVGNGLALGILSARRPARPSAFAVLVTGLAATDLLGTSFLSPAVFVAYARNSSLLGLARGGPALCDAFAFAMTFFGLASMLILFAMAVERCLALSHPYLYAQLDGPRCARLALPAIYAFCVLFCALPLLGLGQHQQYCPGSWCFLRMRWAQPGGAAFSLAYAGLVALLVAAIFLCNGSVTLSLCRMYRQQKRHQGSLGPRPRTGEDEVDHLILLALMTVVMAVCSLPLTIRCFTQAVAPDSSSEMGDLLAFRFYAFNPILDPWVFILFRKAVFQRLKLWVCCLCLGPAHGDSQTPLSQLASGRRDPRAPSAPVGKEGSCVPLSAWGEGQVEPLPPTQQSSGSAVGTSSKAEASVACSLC
Chain of PGE2 receptor EP2 (P43116 whole entry): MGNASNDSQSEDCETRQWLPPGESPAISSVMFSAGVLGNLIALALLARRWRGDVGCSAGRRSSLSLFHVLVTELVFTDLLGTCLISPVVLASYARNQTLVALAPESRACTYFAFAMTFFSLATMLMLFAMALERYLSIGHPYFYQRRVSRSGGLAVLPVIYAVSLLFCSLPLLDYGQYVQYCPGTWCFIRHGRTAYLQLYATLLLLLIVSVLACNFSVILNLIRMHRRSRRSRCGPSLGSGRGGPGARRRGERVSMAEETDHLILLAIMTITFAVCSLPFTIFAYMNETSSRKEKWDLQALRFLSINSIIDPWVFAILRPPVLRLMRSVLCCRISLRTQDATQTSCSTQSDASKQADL

SMILES: CC#CCC(C)[C@H](O)/C=C/[C@@H]1[C@H]2C/C(=C/CCCC(=O)O)C[C@H]2C[C@H]1O (stereo partly drawn) [Iloprost]
iloprost reaching the systemic circulation [1]: less than 20%
specificity for IP (IP): greater specificity for IP than treprostinil
LPS-induced expression of CD40 by DCs (DCs): suppressed
LPS-induced expression of CD86 by DCs (DCs): suppressed
LPS-induced expression of MHC class II molecules by DCs (DCs): suppressed
ability of DCs to stimulate antigen-specific CD4 T cell proliferation (DCs): inhibited
ability of DCs to stimulate production of the Th2 cytokine IL-5 (DCs): inhibited
ability of DCs to stimulate production of the Th2 cytokine IL-13 (DCs): inhibited
maturation and migration of lung DCs to the mediastinal LNs (lung DCs): inhibited
half-life [2]: 13 min
safety of administration to pulmonary hypertension patients [3]: safe
production of effector cytokine IL-4 (Th2 cells): inhibited
production of effector cytokine IL-5 (Th2 cells): inhibited

SMILES: CCCCC[C@H](O)/C=C/[C@@H]1[C@H]2C/C(=C/CCCC(=O)O)O[C@H]2C[C@H]1O [PGI2, prostacyclin]
half-life (biologic half-life) [2]: 46 seconds and 60-90 seconds

SMILES: CCCCC[C@H](O)CC[C@@H]1[C@H]2Cc3cccc(OCC(=O)O)c3C[C@H]2C[C@H]1O [Treprostinil]
activation of PGE2 receptor EP2 (PGE2 receptor EP2): also activated
degree of experimentally-induced pulmonary hypertension [4]: decreasing
half-life compared with epoprostenol [2]: longer
safety of administration to pulmonary hypertension patients [3]: safely used

NFAT function (luciferase activity) (NFAT): significantly suppressed
SMILES: CCC#CC[C@H](C)[C@H](O)C#C[C@@H]1[C@H]2C/C(=C/COCC(=O)O)C[C@H]2C[C@H]1O [cicaprost]
IL-33-induced cytokine responses of ILC2 [5]: inhibited
CD25 mean fluorescence intensity (CD25): dose-dependently decreased
percentages of CD25 expressing cells (CD25): dose-dependently decreased
total numbers of CD25 expressing cells (CD25): dose-dependently decreased
total numbers of IL-4+ T cells (CD4^+ T cells [6]): dose-dependently decreased
total numbers of IL-13+ T cells (CD4^+ T cells [6]): dose-dependently decreased
TSLPR MFI (TSLPR): did not change
percentages of TSLPR expressing cells (TSLPR): did not change
IL-2 production (CD4^+ T cells [7]): dose-dependently suppressed
LPS-induced expression of CD40 by DCs (DCs): suppressed
LPS-induced expression of CD86 by DCs (DCs): suppressed
LPS-induced expression of MHC class II molecules by DCs (DCs): suppressed
ability of DCs to stimulate antigen-specific CD4 T cell proliferation (DCs): inhibited
ability of DCs to stimulate production of the Th2 cytokine IL-5 (DCs): inhibited
ability of DCs to stimulate production of the Th2 cytokine IL-13 (DCs): inhibited
IL-4 production [8, 10]: did not change
IL-5 production [8, 10]: did not change
IL-13 production [8, 10]: did not change
IL-4 production [8, 11]: dose dependently decreased
IL-5 production [8, 11]: dose dependently decreased
IL-13 production [8, 11]: dose dependently decreased
IL-5 production [8, 12]: still significantly inhibited
IL-13 production [8, 12]: still significantly inhibited
ILC2 response (ILC2): inhibited
cell division index (CD4^+ T cells [9]): significantly decreased
total number of live cells (CD4^+ T cells [9]): significantly decreased
production of effector cytokine IL-4 (Th2 cells): inhibited
production of effector cytokine IL-5 (Th2 cells): inhibited
Gata3 mean fluorescence intensity (Gata3): significantly decreased
percentages of Gata3-expressing CD4+ T cells (Gata3): significantly decreased
total number of Gata3-expressing CD4+ T cells (Gata3): significantly decreased
STAT5 phosphorylation (STAT5): dose-dependently attenuated
